We go through 8 compounds from ChEMBL document CHEMBL1201862, “PubChem BioAssay data set” (2004).

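How tested: cells in 96-well plates exposed to compound for 48 hours at five concentrations. Abbreviation: GI50, concentration required for 50% inhibition of growth.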 The source made the active and inactive calls. No stated cut-off is given here; in the data, active = GI50 up to about 1.1 µM and inactive = higher.

Experiment in all cases: inhibition of tumour cell growth, NCI panel, 48 h
In assay [1] the test system is SF-539.
The subject of assay [2] is T47D.
Assay [3] deals with U-251.
The subject of assay [4] is UO-31.
The test system of assay [5] is A498.
Assay [6] has as its system HOP-62.
Assay [7] relates to OVCAR-3.
The test system of assay [8] is MDA-MB-231.
Assay [9] relates to HL-60.
The subject of assay [10] is KM12.
The test system of assay [11] is A549.
Assay [12] deals with SF-268.
In assay [13] the test system is SK-MEL-5.
In assay [14] the test system is SNB-19.
For assay [15], the system named is MDA-MB-435.
The test system of assay [16] is OVCAR-5.
The subject of assay [17] is K562.
The test system of assay [18] is TK-10.
The subject of assay [19] is SK-MEL-2.

In the case of `CC(C)(C(=O)NN)c1ccccc1`, the GI50 in [1] was 42.2 µM (inactive); in assay [2], > 100 µM (inactive); in assay [3], > 100 µM (inactive); in assay [4] it was 76.6 µM (inactive); in [5], > 100 µM (inactive); in [6] it was > 100 µM (inactive). In addition, the GI50 in assay [7] is > 100 µM (inactive); in [8] it was > 100 µM (inactive); in [9] it was > 100 µM (inactive); in [10] it was 42.3 µM (inactive); in assay [11] it was > 100 µM (inactive); in assay [12], 45.3 µM (inactive). Besides, the GI50 in [13] is > 100 µM (inactive); in [14] it was > 100 µM (inactive); in assay [15], 86.5 µM (inactive); in assay [16], > 100 µM (inactive); in assay [17], > 100 µM (inactive); in [18], > 100 µM (inactive). Also, the GI50 in assay [19] is 21.6 µM (inactive).
In the case of `COC(=O)c1c(C)nc(C)c(N=O)c1-c1ccccc1C(F)(F)F`, the GI50 was 20.7 µM (inactive) in [1]; 17.3 µM (inactive) in assay [2]; 17.5 µM (inactive) in [3]; 14.4 µM (inactive) in [4]; > 100 µM (inactive) in assay [5]; > 100 µM (inactive) in assay [6]. The GI50 is 17.3 µM (inactive) in assay [7]; 18 µM (inactive) in [8]; 8 µM (inactive) in assay [9]; 19.1 µM (inactive) in assay [10]; > 100 µM (inactive) in assay [11]; 15.8 µM (inactive) in [12]. The GI50 in assay [13] is 26.5 µM (inactive); in assay [14], > 100 µM (inactive); in [15] it was 22.3 µM (inactive); in [16] it was 21 µM (inactive); in assay [17], 8.41 µM (inactive); in assay [18], 13.8 µM (inactive). Also, the GI50 in [19] was 36.1 µM (inactive).
Consider `CCOc1ccccc1/N=N/C1C(=O)N(C(=O)CC(=O)Nc2ccccc2Cl)N=C1C` (configuration not stated), for which the GI50 was > 100 µM (inactive) in assay [1]; > 100 µM (inactive) in assay [2]; 42.7 µM (inactive) in assay [3]; 47.4 µM (inactive) in assay [4]; 50.1 µM (inactive) in assay [5]; 27.9 µM (inactive) in assay [6]. Moreover, the GI50 in assay [7] was 55.3 µM (inactive); in assay [8] it was 97.9 µM (inactive); in [9] it was 32.8 µM (inactive); in [10], > 100 µM (inactive); in [11], > 100 µM (inactive); in [12] it was 33.7 µM (inactive). Besides, the GI50 was > 100 µM (inactive) in assay [13]; > 100 µM (inactive) in assay [15]; > 100 µM (inactive) in assay [16]; 81.8 µM (inactive) in assay [18]; > 100 µM (inactive) in assay [19].
For `Nc1ncnc2c1cnn2Cc1cn(COCC(O)CO)nn1` (configuration not stated), the GI50 in assay [1], in [2], in assay [3], in [4], in assay [5] and in assay [6] was > 100 µM (inactive) each time. Also, the GI50 is > 100 µM (inactive) in [7]; > 100 µM (inactive) in assay [8]; > 100 µM (inactive) in assay [9]; > 100 µM (inactive) in assay [10]; > 100 µM (inactive) in [11]; 18.1 µM (inactive) in [12]. In addition, the GI50 in [13], in assay [14], in assay [15], in assay [16], in assay [18] and in assay [19] was > 100 µM (inactive) throughout.
In the case of `OC1(c2ccccc2)CC2CCC(C1)N2CCCC1(c2ccc(F)cc2)OCCO1` (configuration not stated), the GI50 is > 100 µM (inactive) in assay [1]; > 100 µM (inactive) in assay [2]; > 100 µM (inactive) in assay [3]; 54.3 µM (inactive) in [4]; > 100 µM (inactive) in assay [5]; > 100 µM (inactive) in assay [6]. Also, the GI50 in assay [7] is > 100 µM (inactive); in [8], > 100 µM (inactive); in [9], 6.78 µM (inactive); in assay [11], > 100 µM (inactive); in assay [12], > 100 µM (inactive); in [13], 21.3 µM (inactive). In addition, the GI50 in [15] was > 100 µM (inactive); in assay [16] it was 79.3 µM (inactive); in assay [17] it was > 100 µM (inactive); in [18], > 100 µM (inactive); in assay [19] it was > 100 µM (inactive).
`COC(=O)c1cc(NC(=O)c2cc(NC(=O)c3cc([N+](=O)[O-])cn3C)cn2C)cn1C`: the GI50 in [1] is > 100 µM (inactive); in assay [2], 12 µM (inactive); in assay [3], 36.8 µM (inactive); in assay [4], 68.4 µM (inactive); in assay [5], > 100 µM (inactive); in assay [6], > 100 µM (inactive). The GI50 in assay [7] was > 100 µM (inactive); in assay [8], 35.6 µM (inactive); in assay [9] it was 86.5 µM (inactive); in assay [10] it was 64.1 µM (inactive); in [11] it was > 100 µM (inactive); in assay [12], > 100 µM (inactive). In addition, the GI50 is 10.2 µM (inactive) in [13]; 59.6 µM (inactive) in assay [14]; 98.6 µM (inactive) in assay [15]; 81.1 µM (inactive) in assay [16]; 61.9 µM (inactive) in assay [17]; 20.3 µM (inactive) in [18]. The GI50 in [19] is 80.2 µM (inactive).
As for `Cc1cc(S(=O)(=O)Nc2nc(N)nc(N3N=CCC3C)n2)c(SCC(=O)O)cc1Cl` (configuration not stated), the GI50 in assay [1] was > 10 µM (inactive); in assay [2], > 10 µM (inactive); in [3], > 10 µM (inactive); in assay [4], 0.001 µM (active); in assay [5], > 10 µM (inactive); in assay [6], > 10 µM (inactive). In addition, the GI50 in assay [7], in assay [8], in [9], in assay [10], in [11] and in [12] was > 10 µM (inactive) throughout. Further, the GI50 in assay [13], in assay [14], in [15], in [16], in [17] and in assay [18] was > 10 µM (inactive) each time. Besides, the GI50 in [19] is > 10 µM (inactive).
Regarding `COC(=O)/C(C#N)=C/c1cc(C(C)(C)C)c(O)c(C(C)(C)C)c1`, the GI50 in assay [1] was 3.27 µM (inactive); in assay [2], 0.83 µM (active); in assay [3] it was 2.26 µM (inactive); in [4], 2.17 µM (inactive); in [5], 1.77 µM (inactive); in [6], 3.15 µM (inactive). Also, the GI50 in assay [7] is 1.45 µM (inactive); in assay [8], 1.63 µM (inactive); in [9] it was 1.88 µM (inactive); in [10], 2.62 µM (inactive); in assay [11], 2.64 µM (inactive); in assay [12], 3.27 µM (inactive). Also, the GI50 in [13] was 1.18 µM (inactive); in assay [14] it was 3.17 µM (inactive); in assay [15] it was 3.21 µM (inactive); in assay [16] it was 2.54 µM (inactive); in assay [17] it was 2.59 µM (inactive); in assay [18] it was 3.24 µM (inactive). Further, the GI50 in assay [19] was 1.73 µM (inactive).
